Test results as given in EPA's ToxRefDB 2.

Columns and labels:
[1] = system: rat; conditions: Subchronic oral toxicity in rodents, sprague dawley, Feed, dose end: 13 week, group: systemic, systemic / in life observation / body weight / body weight + systemic / in life observation / body weight / body weight gain + systemic / …
[2] = system: dog; conditions: Subchronic oral toxicity in nonrodent, beagle, Capsule, dose end: 90 day, group: systemic
[3] = system: dog; conditions: Chronic toxicity; beagle; Oral; Capsule; dose end: 12 month; group: systemic; systemic / pathology microscopic / urinary bladder / calculus + systemic / pathology microscopic / urinary bladder / crystals + systemic / …
[4] = system: rat; conditions: Combined chronic toxicity/carcinogenicity; sprague dawley; Oral; Feed; dose end: 22 month; group: systemic; systemic / clinical chemistry / albumin / albumin + systemic / pathology microscopic / heart / mineralization + systemic / pathology …
[5] = system: mouse; conditions: Carcinogenicity; cd1; Oral; Feed; dose end: 18 month; group: systemic; systemic / pathology gross / urinary bladder / calculus + systemic / pathology microscopic / urinary bladder / hyperplasia + systemic / …
[6] = system: mouse; conditions: Subchronic oral toxicity in rodents, b6c3f1, Feed, dose end: 13 week, group: systemic
[7] = system: rat; conditions: Subchronic oral toxicity in rodents, fischer, Feed, dose end: 13 week, group: systemic, systemic / in life observation / body weight / body weight + systemic / in life observation / body weight / body weight gain + systemic / in…
[8] = system: rat; conditions: Prenatal developmental toxicity study; sprague dawley; Oral; Gavage/Intubation; dose end: 20 GD; group: maternal; systemic / in life observation / body weight / body weight gain
[9] = system: rat; conditions: Combined chronic toxicity/carcinogenicity, fischer, Oral, Water, dose end: 24 month, group: systemic
[10] = system: rat; conditions: Developmental neurotoxicity study; sprague dawley; Oral; Gavage/Intubation; dose end: 77 PND; group: cannot be grouped; systemic / in life observation / body weight / body weight
[11] = system: rat; conditions: Developmental neurotoxicity study, fischer, Oral, Gavage/Intubation, dose end: 22 PND, group: cannot be grouped
[12] = system: mouse; conditions: Prenatal developmental toxicity study, cd1, Oral, Gavage/Intubation, dose end: 17 GD
[13] = system: rat; conditions: Neurotoxicity screening battery; long evans; Injection; Intraperitoneal; dose end: 13 week; group: cannot be grouped; systemic / in life observation / clinical signs / abnormal gait + systemic / in life observation / clinical signs / irritability + systemic…
[14] = system: rat; conditions: Subchronic oral toxicity in rodents, fischer, Water, dose end: 93 day
[15] = system: rat; conditions: Developmental neurotoxicity study; wistar; Oral; Gavage/Intubation; dose end: 91 PND; group: cannot be grouped; systemic / in life observation / body weight / body weight + systemic / in life observation / body weight / body weight gain + systemic / in…
[16] = system: mouse; conditions: Multigenerational reproductive toxicity study, cd1, Oral, Water, dose end: 2 generation
[17] = systemic / pathology microscopic / urinary bladder / calculus + systemic / pathology microscopic / urinary bladder / hemorrhage + systemic…
[18] = systemic / organ weight / liver / relative to body weight + systemic / pathology microscopic / liver / pigmentation
[19] = systemic / pathology microscopic / testes / mesothelioma nos + systemic / pathology microscopic / brain / astrocytoma nos + systemic / …
[20] = systemic / in life observation / body weight / offspring (pup) weight + reproductive / reproductive performance / pregnancy index / …
[21] = group: developmental, systemic / in life observation / body weight / fetal weight
[22] = group: maternal, systemic / in life observation / body weight / body weight gain + systemic / in life observation / clinical signs / splayed hindlimbs + …
[23] = group: cholinesterase, cholinesterase / cholinesterase / cholinesterase / cholinesterase (che)
[24] = group: systemic, systemic / clinical chemistry / alkaline phosphatase (alp/alk) / alkaline phosphatase (alp/alk) + systemic / hematology / erythrocyte (rbc) …
[25] = group: parental, systemic / in life observation / body weight / body weight + systemic / organ weight / adrenal gland / absolute + systemic / organ weight / …
[26] = group: reproductive, reproductive / offspring survival early / live fetuses / live fetuses

`CCS(=O)(=O)c1nc2ccccn2c1S(=O)(=O)NC(=O)Nc1nc(OC)cc(OC)n1` [Sulfosulfuron] gave an LEL [1] of 1280 mg/kg/day, an LOAEL [1] of 1280 mg/kg/day and an NEL [1] of 370 mg/kg/day. For the same molecule, the NOAEL [1] was 370 mg/kg/day, the LEL ([2]; systemic / pathology microscopic / urinary bladder / calculus) was 100 mg/kg/day and the NEL [2, 17] was 30 mg/kg/day. The NOAEL [2, 17] was 100 mg/kg/day, the LOAEL ([2]; systemic / urinalysis / sediment microscopic / crystalluria) was 300 mg/kg/day and the LEL [3] was 500 mg/kg/day. It also gave an LOAEL [3] of 500 mg/kg/day, an NEL [3] of 100 mg/kg/day and an NOAEL [3] of 100 mg/kg/day. The LEL [4] was 244 mg/kg/day, the LOAEL [4] was 244 mg/kg/day and the NEL [4] was 24.4 mg/kg/day. The NOAEL [4] was 24.4 mg/kg/day, the LEL [5] was 394 mg/kg/day and the LOAEL [5] was 394 mg/kg/day. It also gave an NEL [5] of 93.4 mg/kg/day and an NOAEL [5] of 93.4 mg/kg/day.
Molecule `Nc1c(Br)cc(Br)c2c1C(=O)c1ccccc1C2=O` [1-Amino-2,4-dibromoanthraquinone] has an LEL [6, 18] of 500 mg/kg/day, an NEL [6, 18] of under 500 mg/kg/day and an LOAEL ([6]; systemic / pathology microscopic / liver / hypertrophy) of 1850 mg/kg/day. For the same molecule, the NOAEL ([6]; systemic / pathology microscopic / liver / hypertrophy + systemic / in life observation / body weight / body weight gain + systemic / in …) was 1080 mg/kg/day, the LEL [7] was 150 mg/kg/day and the LOAEL [7] was 150 mg/kg/day. The NEL [7] was under 150 mg/kg/day and the NOAEL [7] was under 150 mg/kg/day.
In the case of `C=CC(N)=O` [Acrylamide], the LEL [8] is reported as 7.5 mg/kg/day, the LOAEL [8] is reported as 7.5 mg/kg/day and the NEL [8] is reported as 2.5 mg/kg/day. The NOAEL [8] was 2.5 mg/kg/day, the LEL ([9]; systemic / pathology microscopic / testes / mesothelioma nos) was 0.1 mg/kg/day and the LOAEL [9, 19] was over 2 mg/kg/day. It also gave an NEL [9, 19] of 0.01 mg/kg/day, an NOAEL [9, 19] of at least 2 mg/kg/day and an LEL [10] of 5 mg/kg/day. It also gave an LOAEL [10] of 5 mg/kg/day, an NEL [10] of under 5 mg/kg/day and an NOAEL [10] of under 5 mg/kg/day. The LEL ([11]; systemic / in life observation / body weight / offspring (pup) weight) was 1 mg/kg/day, the NEL ([11]; systemic / in life observation / body weight / offspring (pup) weight + developmental / developmental landmark / pinna unfolding / pinna …) was 0.5 mg/kg/day and the LOAEL [11, 20] was over 10 mg/kg/day. It also gave an NOAEL [11, 20] of at least 10 mg/kg/day, an LEL [12, 21] of 45 mg/kg/day and an LOAEL [12, 21] of over 45 mg/kg/day. The NEL [12, 21] was 15 mg/kg/day, the NOAEL [12, 21] was at least 45 mg/kg/day and the LOAEL [12, 22] was over 45 mg/kg/day. The NEL [12, 22] was 3 mg/kg/day, the NOAEL [12, 22] was at least 45 mg/kg/day and the LEL ([12]; group: maternal, systemic / organ weight / uterus / nos) was 15 mg/kg/day. For the same molecule, the LEL [13] was 1 mg/kg/day, the LOAEL [13] was over 12 mg/kg/day and the NEL [13] was under 1 mg/kg/day. For the same molecule, the NOAEL [13] was at least 12 mg/kg/day, the LEL [14, 23] was 20 mg/kg/day and the LOAEL [14, 23] was over 20 mg/kg/day. The NEL [14, 23] was 5 mg/kg/day, the NOAEL [14, 23] was at least 20 mg/kg/day and the LOAEL [14, 24] was over 20 mg/kg/day. The NOAEL [14, 24] was at least 20 mg/kg/day, the NEL ([14]; group: systemic, systemic / hematology / erythrocyte (rbc) count differential / erythrocyte (rbc) + systemic / hematology / hematocrit (hct) / hematocrit (…) was 0.2 mg/kg/day and the LEL ([14]; group: systemic, systemic / pathology microscopic / nerve / [other]) was 1 mg/kg/day. It also gave an LEL [15] of 25 mg/kg/day, an LOAEL [15] of over 25 mg/kg/day and an NEL [15] of under 25 mg/kg/day. The NOAEL [15] was at least 25 mg/kg/day, the LOAEL [16, 25] was over 7.7 mg/kg/day and the NEL [16, 25] was 0.86 mg/kg/day. For the same molecule, the NOAEL [16, 25] was at least 7.7 mg/kg/day, the LEL ([16]; group: parental, systemic / organ weight / adrenal gland / absolute + systemic / organ weight / kidney / absolute + systemic / organ weight / liver / …) was 2.9 mg/kg/day and the LEL [16, 26] was 7.7 mg/kg/day. For the same molecule, the LOAEL [16, 26] was over 7.7 mg/kg/day and the NOAEL [16, 26] was at least 7.7 mg/kg/day.
